Results as given in US8404679B2, “Pyrrolidine derivatives as NK2 receptor antagonists” (Hoffmann-La Roche Inc., priority 2008, dated 2013).

Columns and labels:
human NK2 receptor = target: T1, human NK2 receptor (Homo sapiens, UniProt P21452); assay: [3H]SR48968 competition binding assay; details: [3H]SR48968 displacement, membranes of CHO cells stably expressing recombinant human NK2 receptor; Ki from IC50 by Cheng-Prussoff
T1 construct: purchased Perkin Elmer biosignal Inc. 6110510
T1 sequence (P21452 1-398): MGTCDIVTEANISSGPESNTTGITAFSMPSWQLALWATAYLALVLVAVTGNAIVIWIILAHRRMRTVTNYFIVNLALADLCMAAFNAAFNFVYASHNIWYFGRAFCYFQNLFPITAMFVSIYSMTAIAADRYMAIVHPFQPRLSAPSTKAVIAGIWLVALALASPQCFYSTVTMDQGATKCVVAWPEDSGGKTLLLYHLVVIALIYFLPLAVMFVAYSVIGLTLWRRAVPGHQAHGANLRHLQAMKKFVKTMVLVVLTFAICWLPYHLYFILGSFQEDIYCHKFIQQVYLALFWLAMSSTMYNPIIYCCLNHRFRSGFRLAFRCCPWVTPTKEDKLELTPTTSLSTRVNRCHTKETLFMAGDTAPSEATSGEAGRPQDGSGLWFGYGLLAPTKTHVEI
Procedure, shortened: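 Membranes from CHO cells stably expressing recombinant human NK2 were incubated 75 min at RT with [3H]SR48968 at its KD and 10 compound concentrations (0.0003–10 μM) in Tris-HCl pH 7.4, MnCl2, chymostatin, BSA. Filter-bound radioactivity was counted; Hill-fitted IC50 converted to Ki via Cheng-Prusoff.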

[1] = system: mouse, gerbils and marmosets; details: cited from earlier work
rodents = details: elevated plus maze and light/dark test in rodents; cited from earlier work

| Structure (SMILES) | Ki (human NK2 receptor) | efficacy in procedures sensitive to anti-depressants [1] | efficacy in exploration based procedures sensitive to anxiolytics (rodents) |
| --- | --- | --- | --- |
| CN(C(=O)c1ccc(Cl)c(C(F)(F)F)c1)[C@H]1CN(C(=O)C2CCN(CC3CC3)CC2)C[C@@H]1c1ccc(Cl)c(Cl)c1 [Example 168, 4-Chloro-N-[(3R,4S)-1-(1-cyclopropylmethyl-piperidine-4-carbonyl)-4-(3,4-dichloro-phenyl)-pyrrolidin-3-yl]-N-methyl-3-trifluoromethyl-benzamide] | 0.4 nM | – | – |
| CN(C(=O)c1cc(C(F)(F)F)ccn1)[C@@H]1CN(C(=O)C2CCN(C(=O)C3(C)CC3)CC2)C[C@H]1c1ccc(Cl)c(Cl)c1 [Example 170, 4-Trifluoromethyl-pyridine-2-carboxylic acid {(3S,4R)-4-(3,4-dichloro-phenyl)-1-[1-(1-methyl-cyclopropanecarbonyl)-piperidine-4-carbonyl]-pyrrolidin-3-yl}-methyl-amide] | 0.4 nM | – | – |
| CN(C(=O)c1ccc(Cl)c(C2CC2)c1)[C@H]1CN(C(=O)C2CCN(C(=O)C3(C)CC3)CC2)C[C@@H]1c1ccc(Cl)c(Cl)c1 [Example 175, 4-Chloro-3-cyclopropyl-N-{(3R,4S)-4-(3,4-dichloro-phenyl)-1-[1-(1-methyl-cyclopropanecarbonyl)-piperidine-4-carbonyl]-pyrrolidin-3-yl}-N-methyl-benzamide] | 42 nM | – | – |
| CN(C(=O)c1ccc(Cl)c(C2CC2)c1)[C@@H]1CN(C(=O)C2CCN(C(=O)C3(C)CC3)CC2)C[C@H]1c1ccc(Cl)c(Cl)c1 [Example 176, 4-Chloro-3-cyclopropyl-N-{(3S,4R)-4-(3,4-dichloro-phenyl)-1-[1-(1-methyl-cyclopropanecarbonyl)-piperidine-4-carbonyl]-pyrrolidin-3-yl}-N-methyl-benzamide] | 0.6 nM | – | – |
| CC(=O)NC1(c2ccccc2)CCN(CC[C@H](CN(C)C(=O)c2ccccc2)c2ccc(Cl)c(Cl)c2)CC1 [Saredutant] | – | Efficacy | effective |
